Laboratory results from patent publication US5215520A, “Method for delivering an active substance topically or percutaneously” (Centre Internationale de Recherches Dermatologiques …, priority 1991, dated 1993).

How the values were obtained:
[1] = rat, in vivo
Experimental: In these experiments, the levels of Thr-Lys-Pro peptide in urine following application of the peptide to the skin were measured.
Electrodes (105, 106) (Ag/AgC1) were tightly fitted to the stoppers (103, 104) and became enclosed within the chambers (101 and 102) when the chambers were closed by replacing the stoppers. The distance between the bottom of the electrode after the stopper has been replaced and the bottom of the chamber is 0.3 cm. The skin surface contact area was 3.80 cm^2 and the axes of the chambers were 42 mm apart. The electrodes were connected to a source of electric current (E). To enable the various experiments to be performed, chambers (101 and 102) were fixed to the skin (S) using a cyanoacrylate glue. […]
After 3 hours the electrodes were removed and the skin washed carefully with deionized water, then dried and stripped 5 times with adhesive tape (3M Co., St. Paul, Minn., U.S.A) and the strips discarded. […] The urine passed in the 24-hour period was collected and counted for radioactivity.
In the method of the invention, the skin was first subjected to 3 hours of electric current as in conventional iontophoresis, except that chamber 101 contained the gel of example 1 without peptide. […] The rats were then left as described previously in their metabolic cages for 24 hours and urine collected and measured for radioactivity. […]

[2] = Pharmacokinetic profile: blood and urine levels after single intravenous injection; type: in vivo, hairless female rats
Experimental: Prior to the in vivo experiments, a study was carried out to determine whether the levels of peptide in urine were significant. To this end, following a single intravenous injection of Thr-Lys-Pro, its levels in blood and urine were measured. This was carried out by an injection of 0.5 cm^3 of an aqueous solution containing 2 nmol/cm^3 of non-radiolabelled peptide and 5 μCi/cm^3 of radiolabelled peptide via the tail vein of five hairless female rats (198±12 g). The rats had been anaesthetised by an intraperitoneal injection of pentobarbital sodium (40 mg/kg). The rats were left in metabolic cages and blood samples were taken at 10, 15, 30 minutes and 1, 2, 3 and 24 hours following the peptide injection. Blood was removed from the retro-orbital sinus of the eye socket by capillary tube. The samples were weighed into a crucible (ashless paper) and allowed to dry overnight. The blood was then oxidized using a tri-carb oxidizer (model 306 sold by Packard Instrument Co. Inc.) and measured for radioactivity. Urine was collected from the cage after 24 hours and also measured for radioactivity.

Thr-Lys-Pro
systemic absorption of peptide (total quantity in urine) vs passive method without current [1]: greater systemic absorption of peptides than the passive method without application of current
quantity of peptide present in urine ([2]; 24 hours after the intravenous injection, radioactivity): 63.6±8 % of the injected dose
quantity of peptide in the blood ([2]; single intravenous injection, blood sampled 10 minutes to 24 hours): not detectable
